row,SMILES,melting point
1,"Nc1ncc(-c2ccc(F)cc2F)nc1C(=O)Nc1cccnc1 [Example 14, 3-Amino-6-(2,4-difluorophenyl)-N-pyridin-3-ylpyrazine-2-carboxamide]",232 to 234 °C
2,"Nc1ncc(-c2cccc(Cl)c2Cl)nc1C(=O)Nc1cccnc1 [Example 12, 3-Amino-6-(2,3-dichlorophenyl)-N-pyridin-3-ylpyrazine-2-carboxamide]",239 to 241 °C
3,"Cc1cc(-c2cnc(N)c(C(=O)Nc3cccnc3)n2)ccc1F [Example 17, 3-Amino-6-[4-fluoro-3-methylphenyl]-N-pyridin-3-ylpyrazine-2-carboxamide]",186 to 189 °C
4,"Nc1ncc(-c2ccc(F)cc2)nc1C(=O)Nc1cccnc1 [Example 10, 3-Amino-6-(4-fluorophenyl)-N-pyridin-3-ylpyrazine-2-carboxamide]",193 to 197 °C
5,"Nc1ncc(-c2ccc(F)c(Cl)c2)nc1C(=O)Nc1cccnc1 [Example 16, 3-Amino-6-(3-chloro-4-fluorophenyl)-N-pyridin-3-ylpyrazine-2-carboxamide]",236 to 238.5 °C
6,"Nc1ncc(-c2cccs2)nc1C(=O)Nc1cccnc1 [Example 6, 3-Amino-6-(2-thienyl)-N-pyridin-3-ylpyrazine-2-carboxamide]",178 to 189 °C
7,"Nc1ncc(-c2ccccc2F)nc1C(=O)Nc1cccnc1 [Example 20, 3-Amino-6-(2-fluorophenyl)-N-pyridin-3-ylpyrazine-2-carboxamide]",221 to 225 °C
8,"Nc1ncc(-c2cccc(F)c2)nc1C(=O)Nc1cccnc1 [Example 19, 3-Amino-6-(3-fluorophenyl)-N-pyridin-3-ylpyrazine-2-carboxamide]",234.5 to 238 °C
9,"Nc1ncc(-c2ccc(F)c(F)c2)nc1C(=O)Nc1cccnc1 [Example 15, 3-Amino-6-(3,4-difluorophenyl)-N-pyridin-3-ylpyrazine-2-carboxamide]",232 to 234 °C
10,"Cc1ccc(-c2cnc(N)c(C(=O)Nc3cccnc3)n2)cc1C [Example 18, 3-Amino-6-(3,4-dimethylphenyl)-N-pyridin-3-ylpyrazine-2-carboxamide]",178 to 182 °C

# Source: patent US20040186113A1, “Heterocyclic amines for the treatment of conditions associated with gsk-3” (priority 2001, published 2004)
